The values that follow come from paper PMC6268294, “Synthesis of Chalcones with Anticancer Activities” (Molecules, 2012).

≈ marks a conversion by molar mass, not a printed value. Like-named read-outs stand apart in the source and are kept apart here.

Data set [1] concerns human lung adenocarcinoma cell line A549. The data set is described as follows: MTT cell viability assay, A549. The data set is classed as cell-based. Conditions: 24 h treatment. On the procedure:
(§1) A549, PC3, MCF-7, HT-29, WRL68 and MCF-7 cells were obtained from the ATTC (Rockville, MD, USA) and grown in RPMI-1640 medium, 10% fetal bovine serum (FBS) and 1% pen-strep, in humidified conditions at 5% CO2 and 37 °C. The different cell lines mentioned above were used to determine the inhibitory effects of compounds on cell growth using the MTT assay. This colorimetric assay is based on the conversion of the yellow tetrazolium bromide (MTT) to a purple formazan derivative by mitochondrial succinate dehydrogenase in viable cells. Cells were seeded in 96-well plate and incubated for 24 h at 37 °C with 5% CO2 saturation. After incubation, the cells were treated with different concentration of compounds and incubated for another 24 h. After 24 h of drug treatment, 20 µL of MTT solution at 5 mg/mL was added and incubated for 4 h. Dimethyl sulfoxide (DMSO) in volume of 100 µL is added into each well to dissolve the purple formazan formed. The colorimetric assay is measured and recorded at absorbance of 570 nm.

Data set [2] concerns human prostate cancer cell line PC3. Put plainly: MTT cell viability assay, PC3. In kind it is cell-based. Conditions: 24 h treatment. On the procedure:
as §1
For orientation: Tetrazolium dyes change colour on reduction, which living cells bring about.

Data set [3] relates to human breast adenocarcinoma cell line MCF-7. Put plainly: MTT cell viability assay, MCF-7. Conditions: MCF7, 24 h treatment. The data set is classed as cell-based. On the procedure:
as §1

Data set [4] concerns human adenocarcinoma cell line HT-29 (colorectal cancer). Put plainly: MTT cell viability assay, HT-29. The data set is classed as cell-based. To be noted: 24 h treatment. On the procedure: as §1
Data set [5] relates to human normal liver cell line WRL-68. The data set is described as follows: MTT cell viability assay, WRL68. In kind it is cell-based. Conditions: 24 h treatment. On the procedure:
as §1

The subject of data set [6] is MCF-7 (breast), A549 (lung), PC3 (prostate), HT-29 (colorectal) and WRL68 (liver). The data set is described as follows: MTT assay, summary over all five cell lines. In kind it is cell-based, human. Conditions: for IC50: Homo sapiens. On the procedure:
as §1

A further data set has as its system MCF-7 cells. The data set is described as follows: Multiparametric high content screening (HCS) cytotoxicity/apoptosis assay. In kind it is cell-based, human. Conditions: MCF-7; compounds 2-6 µg/mL, tamoxifen 0.04 µg/mL; vs control.
Where [7] appears, read: all five cell lines, MTT, read-out: IC50 in all cell lines.
Setting [8] is: all cell lines except for the A549 cell line, MTT, read-out: IC50 in all cell lines except A549.

Protocol for MCF-7 cells: Cells were treated with compound 1 (1A- 3 µg/mL; 1B- 6 µg/mL), 23 (23A- 3 µg/mL; 23B- 6 µg/mL), 25 (25A- 2 µg/mL; 25B- 4 µg/mL) and 5 (5A- 3 µg/mL; 5B- 6 µg/mL).
The toxic effects of Cpd 1, 5, 23 and 25 at different doses on MCF-7 cells were assayed using the high content screening (HCS) KineticScan Reader (Cellomics Inc, Pittsburgh, PA, USA) with the Multiparameter Cytotoxicity Kit 3. The kit contains four fluorescent dyes, i.e., blue fluorescent Hoechst 33342, membrane permeability, mitochondrial membrane potential, and cytochrome c dyes. They respectively detect changes in nuclear morphology (nuclear condensation), membrane permeability, mitochondrial membrane potential and expression of cytochrome c. The multiparametric apoptosis kit quantifies three fundamental parameters related to the process of apoptosis, i.e., nuclear condensation detected by the blue fluorescent nuclear dye, Hoechst 33342, cell permeability detected by permeability dye, mitochondrial damage detected by mitochondrial membrane potential dye and cytochrome c release by DyLight 649 Conjugates. Following treatment with different concentrations of compounds 1, 23, 25 and 5 as mentioned before, the fixation and staining for imaging analysis of the MCF-7 cells were performed according to the manufacturer’s instructions. […] Plates were analyzed using a Thermo Scientific ArrayScanHVTI HCS Reader (Cellomics Inc, Pittsburgh, PA, USA). This is a computerized automated fluorescence imaging microscope that automatically identifies stained cells and measures the intensity and distribution of fluorescence in individual cells. Images for each fluoroprobe were acquired at different channels using suitable filters with 20x objective at fixed exposure time. The Cell Health Profiling BioApplication software was used for image acquisitions and analysis. For each well, at least 25 fields, corresponding to at least 500 cells were automatically acquired and analyzed. All experiments were performed in triplicates. Cell average intensity (Mean) under the modified object mask within selected range in each channel was used as assay indicator, and reported as average fluorescence intensity.

By IC50 is commonly meant the concentration that gives 50% inhibition. For the compound `O=C(/C=C/c1ccccc1)c1ccc(O)cc1` [Compound 2, 1-(4-Hydroxyphenyl)-3-phenylpropenone], the IC50 in data set [1], in data set [2], in data set [3], in data set [4] and in data set [5] was above 100 µg/mL throughout. Besides, the “cytotoxic effect in words” value in data set [6] (all cell lines, MTT) is “low cytotoxic effects”.
Regarding `Cc1ccc(C(=O)/C=C/c2ccccc2)cc1` [Compound 3, 3-Phenyl-1-p-tolylpropenone], the IC50 in data set [1] amounted to 36.6 ± 1.76 µg/mL (≈ 165 µM); in data set [2] it was 17.3 ± 1.1 µg/mL (≈ 77.8 µM); in data set [3], 13.6 ± 1.01 µg/mL (≈ 61.3 µM); in data set [4], 19.1 ± 1 µg/mL (≈ 85.9 µM); in data set [5] it was 21.3 ± 3.01 µg/mL (≈ 96 µM).
On the same counts, the results for `COc1ccc(C(=O)/C=C/c2ccccc2)cc1` [Compound 4, 1-(4-Methoxyphenyl)-3-phenylpropenone] are 77 ± 2.1 µg/mL (≈ 323 µM), 21.1 ± 1.24 µg/mL (≈ 88.7 µM), 19.1 ± 1 µg/mL (≈ 80.4 µM), 37.3 ± 2.81 µg/mL (≈ 156 µM) and 57.3 ± 3.8 µg/mL (≈ 240 µM).
On the same counts, the results for `O=C(/C=C/c1ccccc1Cl)c1ccc(O)cc1` [Compound 6, 3-(2-Chlorophenyl)-(4-hydroxyphenyl)-propenone] are 25.2 ± 1.21 µg/mL (≈ 97.5 µM), 11 ± 1.8 µg/mL (≈ 42.5 µM), 10 ± 1.4 µg/mL (≈ 38.7 µM), 15.5 µg/mL (≈ 60 µM) and 13.2 ± 1.3 µg/mL (≈ 51.1 µM).
The melting point is the temperature, or range, at which the solid turns liquid. Compound `Cc1ccc(C(=O)/C=C/c2ccccc2Cl)cc1` [Compound 7, 3-(2-Chlorophenyl)-1-P-tolylpropenone] came in with a melting point of 50 to 51 °C. This compound also yielded an IC50 in data set [1] above 100 µg/mL. The IC50 in data set [2] is above 100 µg/mL. The compound further came in with a half-maximal inhibitory concentration (IC50) in data set [3] above 100 µg/mL. This compound also came in with an IC50 in data set [4] above 100 µg/mL. In data set [5], this compound showed an IC50 above 100 µg/mL. Moreover, in data set [6], the “cytotoxic effect in words” value is recorded as “low cytotoxic effects”.
Take `COc1ccc(C(=O)/C=C/c2ccccc2Cl)cc1` [Compound 8, 3-(2-Chlorophenyl)-1-(4-methoxy-phenyl)propenone]: the IC50 in data set [1], in data set [2], in data set [3], in data set [4] and in data set [5] was above 100 µg/mL throughout. Besides, the “cytotoxic effect in words” value in data set [6] is “low cytotoxic effects”.
`Cc1cccc(/C=C/C(=O)c2ccccc2)c1` [Compound 9, 1-Phenyl-3-m-tolylpropenone] yielded a melting point of 68 to 70 °C. Further, in data set [1], it took 24.7 ± 2 µg/mL (≈ 111 µM) to reach half-maximal inhibition (IC50). In data set [2], inhibition was half-maximal at 9.4 ± 1.9 µg/mL (≈ 42.3 µM) (IC50). The IC50 in data set [3] turned out to be 9.34 ± 0.56 µg/mL (≈ 42 µM). Also, inhibition in data set [4] was half-maximal at 19 ± 1.5 µg/mL (≈ 85.3 µM) (IC50). The compound also showed a half-inhibitory concentration (IC50) in data set [5] of 9.78 ± 1.01 µg/mL (≈ 44 µM).
Consider `Cc1cccc(/C=C/C(=O)c2ccc(O)cc2)c1` [Compound 10, 1-(4-Hydroxyphenyl)-3-m-tolylpropenone], for which the IC50 is 19.7 ± 1.22 µg/mL (≈ 82.6 µM) in data set [1]; 13.7 ± 1.1 µg/mL (≈ 57.5 µM) in data set [2]; 8.34 ± 0.472 µg/mL (≈ 35 µM) in data set [3]; 12.1 ± 3 µg/mL (≈ 50.8 µM) in data set [4]; 13.4 ± 2.09 µg/mL (≈ 56.4 µM) in data set [5]; below 20 µg/mL in data set [6] (setting [7]). Also, the “cytotoxic effect in words” value in data set [6] is “high cytotoxicity”.
`Cc1ccc(C(=O)/C=C/c2cccc(C)c2)cc1` [Compound 11, 3-m-Tolyl-1-p-tolylpropenone]: the IC50 in data set [1] is 24.9 ± 1.9 µg/mL (≈ 105 µM); in data set [2] it was 8.73 ± 0.21 µg/mL (≈ 36.9 µM); in data set [3] it was 10.2 ± 1.89 µg/mL (≈ 43 µM); in data set [4], 16.3 ± 1.9 µg/mL (≈ 69 µM); in data set [5], 13.9 ± 1.3 µg/mL (≈ 59 µM); in data set [6] (setting [8]), below 20 µg/mL.
Turning to `COc1ccc(C(=O)/C=C/c2cccc(C)c2)cc1` [Compound 12, 1-(4-Methoxyphenyl)-3-m-tolylpropenone], the melting point lay in the range of 74 to 75 °C. The same compound came in with an IC50 in data set [1] of 31.8 ± 1.5 µg/mL (≈ 126 µM). For the same compound, the IC50 in data set [2] was 9.87 ± 0.71 µg/mL (≈ 39.1 µM). In data set [3], 9.53 ± 1.99 µg/mL (≈ 37.8 µM) corresponded to half-maximal inhibition (IC50). For the same compound, the IC50 in data set [4] turned out to be 15.8 ± 2.1 µg/mL (≈ 62.5 µM). The IC50 in data set [5] was 11.1 ± 1.8 µg/mL (≈ 44.1 µM). The IC50 in data set [6] (setting [8]) was below 20 µg/mL.
As to `COc1ccc(/C=C/C(=O)c2ccccc2)cc1` [Compound 13, 3-(4-Methoxyphenyl)-1-phenylpropenone], the IC50 came to 32.6 ± 2.5 µg/mL (≈ 137 µM) in data set [1]; 12.1 ± 0.99 µg/mL (≈ 50.7 µM) in data set [2]; 11.62 ± 0.101 µg/mL (≈ 48.8 µM) in data set [3]; 22.8 ± 2.3 µg/mL (≈ 95.6 µM) in data set [4]; 21.5 ± 1.7 µg/mL (≈ 90.1 µM) in data set [5].
`COc1ccc(/C=C/C(=O)c2ccc(O)cc2)cc1` [Compound 14, 1-(4-Hydroxyphenyl)-3-(4-methoxyphenyl)-propenone]: the IC50 in data set [1], in data set [2], in data set [3], in data set [4] and in data set [5] was above 100 µg/mL each time. Moreover, the “cytotoxic effect in words” value in data set [6] is reported as “low cytotoxic effects”.
Turning to `COc1ccc(/C=C/C(=O)c2ccc(C)cc2)cc1` [Compound 15, 3-(4-Methoxyphenyl)-1-p-tolylpropenone], the IC50 was above 100 µg/mL in data set [1]; 43.3 ± 4.01 µg/mL (≈ 171 µM) in data set [2]; 32.4 ± 1.88 µg/mL (≈ 128 µM) in data set [3]; 29.6 ± 2.8 µg/mL (≈ 117 µM) in data set [4]; 50.9 ± 3.51 µg/mL (≈ 202 µM) in data set [5].
On the same counts, the results for `COc1ccc(/C=C/C(=O)c2ccc(OC)cc2)cc1` [Compound 16, 1,3-Bis-(4-Methoxyphenyl)-propenone] are above 100 µg/mL, above 100 µg/mL, 41.4 ± 1.91 µg/mL (≈ 154 µM), 67.1 ± 4.1 µg/mL (≈ 250 µM) and 60.8 ± 4.22 µg/mL (≈ 227 µM).
On the same counts, the results for `CN(C)c1ccc(/C=C/C(=O)c2ccccc2)cc1` [Compound 17, 3-(4-Dimethylaminophenyl)-1-phenyl-propenone] are above 100 µg/mL, above 100 µg/mL, 99.3 ± 6.16 µg/mL (≈ 395 µM), 64.3 ± 5.02 µg/mL (≈ 256 µM) and above 100 µg/mL.
Turning to `CN(C)c1ccc(/C=C/C(=O)c2ccc(O)cc2)cc1` [Compound 18, 3-(4-Dimethylaminophenyl)-1-(4-hydroxy-phenyl)-propenone], the IC50 in data set [1], in data set [2], in data set [3], in data set [4] and in data set [5] was above 100 µg/mL each time. Moreover, the “cytotoxic effect in words” value in data set [6] (all cell lines, MTT) was “low cytotoxic effects”.
For the compound `Cc1ccc(C(=O)/C=C/c2ccc(N(C)C)cc2)cc1` [Compound 19, 3-(4-Dimethylaminophenyl)-1-p-tolyl-propenone], the melting point was in the range of 124 to 125 °C. In data set [1], this compound showed an IC50 of 58.5 ± 3.2 µg/mL (≈ 221 µM). The compound also came in with an IC50 in data set [2] above 100 µg/mL. The same compound registered an IC50 in data set [3] of 57.3 ± 3.1 µg/mL (≈ 216 µM). The IC50 in data set [4] was 69.5 ± 4.23 µg/mL (≈ 262 µM). In data set [5], this compound registered a half-maximal inhibitory concentration (IC50) of 39.8 ± 3.9 µg/mL (≈ 150 µM).
Take `COc1ccc(C(=O)/C=C/c2ccc(N(C)C)cc2)cc1` [Compound 20, 3-(4-Dimethylaminophenyl)-1-(4-methoxy-phenyl)-propenone]: the concentration for half-maximal inhibition (IC50) in data set [1] is 78.8 ± 4.4 µg/mL (≈ 280 µM); in data set [2] it was above 100 µg/mL; in data set [3] it was above 100 µg/mL; in data set [4] it was above 100 µg/mL; in data set [5] it was above 100 µg/mL. In addition, the “cytotoxic effect in words” value in data set [6] was “low cytotoxic effects”.
In the case of `O=C(/C=C/c1ccccc1O)c1ccccc1` [Compound 21, 3-(2-Hydroxyphenyl)-1-phenylpropenone], the IC50 was 22.6 ± 1.1 µg/mL (≈ 101 µM) in data set [1]; 11.1 ± 0.4 µg/mL (≈ 49.4 µM) in data set [2]; 9.35 ± 1.2 µg/mL (≈ 41.7 µM) in data set [3]; 19.8 ± 2.01 µg/mL (≈ 88.5 µM) in data set [4]; 17 ± 1.7 µg/mL (≈ 75.9 µM) in data set [5]; below 20 µg/mL in data set [6] (setting [8]).
The compound `O=C(/C=C/c1ccccc1O)c1ccc(O)cc1` [Compound 22, 3-(2-Hydroxyphenyl)-1-(4-hydroxyphenyl)-propenone] showed a melting point of 287 to 289 °C. In addition, the IC50 in data set [1] is above 100 µg/mL. Also, the IC50 in data set [2] is above 100 µg/mL. In data set [3], this compound had an IC50 above 100 µg/mL. This compound yielded a concentration for half-maximal inhibition (IC50) in data set [4] above 100 µg/mL. This compound also displayed a 50% inhibitory concentration (IC50) in data set [5] above 100 µg/mL. For the same compound, in data set [6], the “cytotoxic effect in words” value is given as “low cytotoxic effects”.
Take `COc1ccc(C(=O)/C=C/c2ccccc2O)cc1` [Compound 24, 3-(2-Hydroxyphenyl)-1-(4-methoxyphenyl)-propenone]: the IC50 is 14.2 ± 1 µg/mL (≈ 55.7 µM) in data set [1]; 5.58 ± 0.2 µg/mL (≈ 22 µM) in data set [2]; 7.15 ± 0.4 µg/mL (≈ 28.1 µM) in data set [3]; 11.4 ± 1 µg/mL (≈ 44.9 µM) in data set [4]; 8.72 ± 1 µg/mL (≈ 34.3 µM) in data set [5]; below 20 µg/mL in data set [6] (setting [7]). For the same compound, the “cytotoxic effect in words” value in data set [6] is “high cytotoxicity”.
Consider `CC/C(=C(\c1ccccc1)c1ccc(OCCN(C)C)cc1)c1ccccc1` [tamoxifen, reference compound], for which, in the data set with MCF-7 cells, the cytochrome c release result is “found to increase”, the mitochondrial membrane potential entry is “reduction in mitochondrial membrane potential dye retention” and the “total nuclear intensity (Hoechst 33342 nuclear chromatin staining)” value is “increase in nuclear chromatin staining”.
